Experimental data as given in patent US20240358862A1, “Synthesis Method and Application of a Near-infrared Probe GGa-ICG specific binding to PSCA” (Guangzhou Shiyun Biotechnology Co., Ltd, priority 2022, published 2024).

Experiments:
[1] = Fluorescence stability detection; assay type: physicochemical; settings: after excitation at 780 nm
Procedure: Stability testing was divided into two groups: 1) stability testing under excitation wavelength and 2) stability testing of GGa-ICG under visible light. Excitation wavelength of 780 nm (GGa-ICG, ssDNA-ICG, and ICG) and visible light were used to excite the fluorescence probe GGa-ICG. Fluorescence detection was performed, and the changes in fluorescence intensity were recorded using a fluorescence spectrophotometer.

[2] = tested on: prostate cancer lesions (PC-3 xenograft); assay: In vivo imaging in PC-3 mouse xenograft model; set-up: species or system BALB/c nude mice; settings: intravenous injection, at 2, 4, and 8 hours
Procedure: Male BALB/c nude mice (BALB/c-nude) were purchased from Beijing SLAC Laboratory Animal Co., Ltd. Five-week-old nude mice were subcutaneously injected with 5×10^6 PC-3 cells on the back. The tumor was allowed to grow for 15 to 20 days until it reached a diameter of 0.5-1.5 cm. The BALB/c nude mice bearing tumors were anesthetized with sedatives and anesthetics. Once the mice were immobilized, a designated dose (0.1 mg, 0.5 mg, 1 mg, 2 mg per injection) of GGa-ICG or ssDNA-ICG was injected through the tail vein. At certain time points, fluorescent images of live mice were collected using the IVIS Lumina II in vivo imaging system. For ex vivo fluorescent experiments, tumor-bearing mice that were intravenously injected with GGa-ICG or ssDNA-ICG were euthanized by cervical dislocation 1 hour after injection under anesthesia. After dissection, organs including brain, liver, kidney, spleen, lung, heart, and tumor tissue were imaged using the IVIS Lumina II in vivo imaging system as described above.

With CC1(C)C(/C=C/C=C/C=C/C=C2\N(CCCCS(=O)(=O)O)c3ccc4ccccc4c3C2(C)C)=[N+](CCCCS(=O)(=O)[O-])c2ccc3ccccc3c21 [ICG, indocyanine green, reference compound] the “time after which fluorescence was extinguished” value [1] was 1 h and the “binding to prostate cancer lesions in vivo” value [2] was “specifically bound”.
